# From patent US11560385B2, “Proteasome activity enhancing compounds” (Proteostasis Therapeutics, Inc., priority 2018, dated 2023)
# pIC50: −log10 of the molar value.
# Target: USP14 (Homo sapiens (Human), UniProt P54578)
# Experiment: Usp14 inhibition assay (Example 57B, B-series compounds)
# Format: biochemical
# Settings: IC50 class; average value from a minimum of two experimental determinations
# From the text: Example 57B: Usp14 Inhibition Assay
# The IC50 values in the Table below represent the average value from a minimum of two experimental determinations.
# Sequence of USP14 (P54578 whole entry, looked up): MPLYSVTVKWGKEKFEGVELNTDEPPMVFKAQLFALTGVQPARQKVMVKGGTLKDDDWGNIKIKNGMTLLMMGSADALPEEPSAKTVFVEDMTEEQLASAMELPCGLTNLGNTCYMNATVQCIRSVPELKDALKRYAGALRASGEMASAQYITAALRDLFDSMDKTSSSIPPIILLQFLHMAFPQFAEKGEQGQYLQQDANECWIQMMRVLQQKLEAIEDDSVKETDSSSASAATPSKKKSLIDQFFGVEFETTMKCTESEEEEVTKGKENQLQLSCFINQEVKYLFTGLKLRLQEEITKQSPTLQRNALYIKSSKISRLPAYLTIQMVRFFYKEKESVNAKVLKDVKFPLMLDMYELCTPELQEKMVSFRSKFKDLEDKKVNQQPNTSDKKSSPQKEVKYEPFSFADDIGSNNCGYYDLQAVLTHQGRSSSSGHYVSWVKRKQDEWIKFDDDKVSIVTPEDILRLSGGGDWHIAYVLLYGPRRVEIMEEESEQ
row,Compound,pIC50
1,Cc1nc(Cc2c(Cl)c(C(=O)CN3C4CCC3[C@@H](O)C4)c(C)n2-c2ccc(C#N)cc2)cs1 (stereo partly shown) [Example 128B],> 7.30
2,"Cc1c(F)c(C(=O)CN2[C@@H]3CC[C@H]2[C@@H](C(F)(F)F)C3)c(C)n1-c1ccc(C#N)cc1 (racemic) [Example 103B, (±)-4-(3-Fluoro-2,5-dimethyl-4-(2-((1R,2R,4S)-2-(trifluoromethyl)-7-azabicyclo[2.2.1]heptan-7-yl)acetyl)-1H-pyrrol-1-yl)benzonitrile]",< 6.30
3,"Cc1c(F)c(C(=O)CN2[C@@H]3CC[C@H]2[C@H](C)C3)c(C)n1-c1ccc(C#N)cc1 (racemic) [Example 121B, (±)-4-(3-Fluoro-2,5-dimethyl-4-(2-((1S,2R,4R)-2-methyl-7-azabicyclo[2.2.1]heptan-7-yl)acetyl)-1H-pyrrol-1-yl)benzonitrile]",6.30 to 7.30
4,"Cc1cc(C(=O)CN2C3CCCC2CC3)c(C)n1-c1ccc(C#N)cc1 [Example 69B, 4-(3-(2-(8-Azabicyclo[3.2.1]octan-8-yl)acetyl)-2,5-dimethyl-1H-pyrrol-1-yl)benzonitrile]",6.30 to 7.30
5,"Cc1c(C(=O)CN2C3CCC2C(O)C3)cc([C@@H]2C[C@H]2C)n1-c1ccc(C#N)cc1 (mixture of isomers) [Example 142B, (±)-4-(3-(2-((1S,2R,4R)-2-Hydroxy-7-azabicyclo[2.2.1]heptan-7-yl)acetyl)-2-methyl-5-(2-methylcyclopropyl)-1H-pyrrol-1-yl)benzonitrile]",6.30 to 7.30
6,"Cc1cc(C(=O)CN2C3CCC2[C@@H](O)C3)c(C)n1-c1ccc(C#N)cc1F (mixture of isomers) [Example 91B, (±)-3-Fluoro-4-(3-(2-((2R)-2-hydroxy-7-azabicyclo[2.2.1]heptan-7-yl)acetyl)-2,5-dimethyl-1H-pyrrol-1-yl)benzonitrile]",6.30 to 7.30
7,"Cc1c(C(=O)CN2[C@H]3CC[C@@H]2[C@@H](O)C3)cc(CC2(Cl)CCC2)n1-c1ccc(C#N)cc1 (racemic) [Example 157B, (±)-4-(5-((1-Chlorocyclobutyl)methyl)-3-(2-((1S,2R,4R)-2-hydroxy-7-azabicyclo[2.2.1]heptan-7-yl)acetyl)-2-methyl-1H-pyrrol-1-yl)benzonitrile]",6.30 to 7.30
8,"Cc1c(C(=O)CN2C3CCC2CC3)cc(CC2COC2)n1-c1ccc(C#N)cc1 [Example 54B, 4-(3-(2-(7-Azabicyclo[2.2.1]heptan-7-yl)acetyl)-2-methyl-5-(oxetan-3-ylmethyl)-1H-pyrrol-1-yl)benzonitrile]",> 7.30
9,"Cc1cc(C(=O)CN2C3CCCC2CCC3)c(C)n1-c1ccc(C#N)cc1 [Example 87B, 4-(3-(2-((1s,5s)-9-Azabicyclo[3.3.1]nonan-9-yl)acetyl)-2,5-dimethyl-1H-pyrrol-1-yl)benzonitrile]",6.30 to 7.30
10,Cc1c(C(=O)CN2C3CCC2CC3)cc(/C=C\CCS(C)(=O)=O)n1-c1ccc(C#N)cc1 [Example 26B],> 7.30
11,"Cc1cc(C(=O)CN2C3CCC2[C@@H](CO)C3)c(C)n1-c1ccc(C#N)cc1 (mixture of isomers) [Example 130B, (±)-4-(3-(2-((2R)-2-(Hydroxymethyl)-7-azabicyclo[2.2.1]heptan-7-yl)acetyl)-2,5-dimethyl-1H-pyrrol-1-yl)benzonitrile]",6.30 to 7.30
12,"Cc1c(Cl)c(C(=O)CN2C3CCC2[C@@H](O)C3)c(C)n1-c1ccc(C#N)cc1 (mixture of isomers) [Example 77B, (±)-4-(3-Chloro-4-(2-((2R)-2-hydroxy-7-azabicyclo[2.2.1]heptan-7-yl)acetyl)-2,5-dimethyl-1H-pyrrol-1-yl)benzonitrile]",6.30 to 7.30
13,"Cc1cc(C(=O)CN2C3CCC2[C@@H](O)C3)c(C)n1-c1ccc(C#N)c(F)c1 (mixture of isomers) [Example 90B, (±)-2-Fluoro-4-(3-(2-((2R)-2-hydroxy-7-azabicyclo[2.2.1]heptan-7-yl)acetyl)-2,5-dimethyl-1H-pyrrol-1-yl)benzonitrile]",> 7.30
